# Test results: patent US10787462B2, “Heterocyclic compound” (TAKEDA PHARMACEUTICAL COMPANY LIMITED, priority 2015, dated 2020)
# Read-outs that look alike come from different tables or passages of the source.
# Biological target: T1, human RIPK1 (1-375) (Homo sapiens, UniProt Q13546)
# T1 construct: human RIPK1 (1-375) gene; GST; made in house; host or cells: Sf-9 insect cells
# T1 sequence (Q13546 1-375): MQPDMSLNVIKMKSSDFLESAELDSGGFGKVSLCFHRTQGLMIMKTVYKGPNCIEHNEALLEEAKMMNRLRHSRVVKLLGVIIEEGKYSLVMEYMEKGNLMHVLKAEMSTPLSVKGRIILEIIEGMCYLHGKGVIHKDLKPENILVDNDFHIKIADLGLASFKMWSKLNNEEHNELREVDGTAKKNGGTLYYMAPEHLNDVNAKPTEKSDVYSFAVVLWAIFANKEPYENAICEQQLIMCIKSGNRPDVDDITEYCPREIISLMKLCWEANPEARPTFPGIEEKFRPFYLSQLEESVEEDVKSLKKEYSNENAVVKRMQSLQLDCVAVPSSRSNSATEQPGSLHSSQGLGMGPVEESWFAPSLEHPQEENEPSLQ
# Experiment: Human RIPK1 enzyme inhibitory effect (ADP-Glo Kinase Assay)
# Format: biochemical
# Details: for human RIPK1 enzyme inhibitory effect at 10 μM (% inhibition): 10 μM test compound
# How it was run: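 Human RIPK1 (1-375), GST-purified from Sf-9 cells, preincubated 20 min at room temperature with compound in 25 mM HEPES pH 7.5, 10 mM MgCl2, 0.01% Tween-20, 2 mM DTT. Reaction started with 0.6 mM ATP solution (stock), run 120 min at room temperature. ADP measured by ADP-Glo luminescence.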
# [1] = read-out: human RIPK1 enzyme inhibitory effect at 10 μM (% inhibition), 10 μM test compound, well without enzyme = 100% inhibition
# [2] = well without enzyme = 100% inhibition
Structure (SMILES),inhibition at 10 µM [1],further results
"CN1C(=O)[C@@H](N2CCc3c(nn(Cc4ccccc4)c3C(N)=O)C2=O)COc2ccccc21 [Example 50, 2-benzyl-6-((3S)-5-methyl-4-oxo-2,3,4,5-tetrahydro-1,5-benzoxazepin-3-yl)-7-oxo-4,5,6,7-tetrahydro-2H-pyrazolo[3,4-c]pyridine-3-carboxamide]",,inhibition at 10 µM (read-out: human RIPK1 enzyme inhibitory effect at 10 μM (% inhibition)): 99%
"COc1cccc(Cn2cc3c(n2)C(=O)N([C@H]2COc4ccccc4N(C)C2=O)CC3)c1 [Example 155, (3S)-3-(2-(3-methoxybenzyl)-7-oxo-2,4,5,7-tetrahydro-6H-pyrazolo[3,4-c]pyridin-6-yl)-5-methyl-2,3-dihydro-1,5-benzoxazepin-4(5H)-one]",97%,
"CN1C(=O)[C@@H](N2CCc3cn(Cc4cccc(Cl)c4)nc3C2=O)COc2ccccc21 [Example 26, (3S)-3-(2-(3-chlorobenzyl)-7-oxo-2,4,5,7-tetrahydro-6H-pyrazolo[3,4-c]pyridin-6-yl)-5-methyl-2,3-dihydro-1,5-benzoxazepin-4(5H)-one]",100%,
"CN1C(=O)[C@@H](N2CCc3c(nn(Cc4ccccc4)c3Cl)C2=O)COc2cc(C(=O)O)ccc21 [Example 61, (3S)-3-(2-benzyl-3-chloro-7-oxo-2,4,5,7-tetrahydro-6H-pyrazolo[3,4-c]pyridin-6-yl)-5-methyl-4-oxo-2,3,4,5-tetrahydro-1,5-benzoxazepine-8-carboxylic acid]",100%,
"CN1C(=O)[C@@H](N2CCc3c(nn(Cc4ccccc4)c3Cl)C2=O)COc2ccccc21 [Example 76, (3S)-3-(2-benzyl-3-chloro-7-oxo-2,4,5,7-tetrahydro-6H-pyrazolo[3,4-c]pyridin-6-yl)-5-methyl-2,3-dihydro-1,5-benzoxazepin-4(5H)-one]",97%,
"CN1C(=O)[C@@H](N2CCc3cn(Cc4ccccc4)nc3C2=O)CSc2ccccc21 [Example 19, (3R)-3-(2-benzyl-7-oxo-2,4,5,7-tetrahydro-6H-pyrazolo[3,4-c]pyridin-6-yl)-5-methyl-2,3-dihydro-1,5-benzothiazepin-4(5H)-one]",99%,
"CN1C(=O)C(N2CCc3c(nn(Cc4ccccc4F)c3Cl)C2=O)CCc2nn(C)cc21 (stereo not drawn) [Example 121, 6-(3-chloro-2-(2-fluorobenzyl)-7-oxo-2,4,5,7-tetrahydro-6H-pyrazolo[3,4-c]pyridin-6-yl)-2,4-dimethyl-2,6,7,8-tetrahydropyrazolo[4,3-b]azepin-5(4H)-one]",,human RIPK1 enzyme inhibitory effect at 10 μM (% inhibition) [2]: 86%
"CN1C[C@H](N2CCc3cn(Cc4ccccc4)nc3C2=O)C(=O)N(C)c2ccccc21 [Example 151, (3S)-3-(2-benzyl-7-oxo-2,4,5,7-tetrahydro-6H-pyrazolo[3,4-c]pyridin-6-yl)-1,5-dimethyl-1,3,4,5-tetrahydro-2H-1,5-benzodiazepin-2-one]",98%,
"CN1C(=O)C(N2CCc3c(nn(Cc4ccccc4)c3Cl)C2=O)CCc2cn(C)nc21 (stereo not drawn) [Example 111, 6-(2-benzyl-3-chloro-7-oxo-2,4,5,7-tetrahydro-6H-pyrazolo[3,4-c]pyridin-6-yl)-2,8-dimethyl-2,5,6,8-tetrahydropyrazolo[3,4-b]azepin-7(4H)-one]",,human RIPK1 enzyme inhibitory effect at 10 μM (% inhibition) [2]: 99%
